Experimental data reported in patent US5503852A, “Method for making self-assembling diketopiperazine drug delivery system” (Pharmaceutical Discovery Corporation, priority 1994, dated 1996).

What was measured:
[1] = Solubility in aqueous media; assay type: physicochemical
[2] = at clinically effective concentrations; cited from earlier work
[3] = Blood glucose levels after insulin; assay type: in vivo, rats; settings: subcutaneous; 100 μg insulin/kg
Description: Porcine insulin (Sigma Chemical Co., St. Louis, Mo., Catalog No. 1 3505, specific activity: approximately 24 IU/mg) was encapsulated in 2,5-diketo- 3,6-di (4-fumarylamino)piperazine, prepared using the same method in Example 1, by dissolving the diketopiperazine in sodium bicarbonate to form a solution containing 12.5 mg diketopiperazine/ml solution. This solution was then mixed with an equal volume of citric acid solution containing porcine insulin at a concentration of 0.172 mg insulin/ml citric acid to form a white precipitate. The product was collected by centrifuge and washed once with 200 ml of deionized water, and then dried overnight in the lyophilizer. The product was assayed by HPLC and found to contain 1.6% insulin by weight.
In total, three male rats weighing about 200 g each were each administered a dose of 100 μg insulin/kg body weight. The dose was given subcutaneously and also as insulin encapsulated in diketopiperazine. Control animals received only the diketopiperazine and the vehicle, phosphate buffered saline. Blood glucose levels were measured on samples taken from the tail vein at various times after treatment and measured as mg of glucose/dl blood using one drop of tail blood squeezed onto a Glucofilm™ strip.

## O=C(O)CCC(=O)NCCCCC1NC(=O)C(CCCCNC(=O)CCC(=O)O)NC1=O (stereo not shown) [2,5-diketo-3,6-di(4-succinylaminobutyl)piperazine]
[1]; acidic aqueous solutions
  solubility: quite insoluble in acidic aqueous solutions
[1]; weakly alkaline aqueous solution
  solubility: readily soluble in weakly alkaline aqueous solution

## NC(=O)OCC(COC(N)=O)c1ccccc1 [felbamate]
[2]
  solubility in aqueous media: not soluble in aqueous media at clinically effective concentrations

## encapsulated insulin by subcutaneous injection: Porcine insulin (Sigma Chemical Co.), given subcutaneously
[3]
  blood glucose level: A marked decrease in blood glucose level
